Data on one substance can be found in PMC5908784, “Extracellular loops 2 and 3 of the calcitonin receptor selectively modify agonist binding and efficacy” (Biochemical Pharmacology, 2018).

Common to all, as to assay: Homologous whole cell competition binding
Holding throughout (conditions): homologous competition of 125I-sCT(8-32), whole cells, mean ± S.E.M., SEM

The target of one assay is T1, hCTR G369A (Homo sapiens, UniProt P30988, G369A).
T1 construct: c-Myc (N); expressed in transfected cells
T1 sequence (P30988 25-474 G369A): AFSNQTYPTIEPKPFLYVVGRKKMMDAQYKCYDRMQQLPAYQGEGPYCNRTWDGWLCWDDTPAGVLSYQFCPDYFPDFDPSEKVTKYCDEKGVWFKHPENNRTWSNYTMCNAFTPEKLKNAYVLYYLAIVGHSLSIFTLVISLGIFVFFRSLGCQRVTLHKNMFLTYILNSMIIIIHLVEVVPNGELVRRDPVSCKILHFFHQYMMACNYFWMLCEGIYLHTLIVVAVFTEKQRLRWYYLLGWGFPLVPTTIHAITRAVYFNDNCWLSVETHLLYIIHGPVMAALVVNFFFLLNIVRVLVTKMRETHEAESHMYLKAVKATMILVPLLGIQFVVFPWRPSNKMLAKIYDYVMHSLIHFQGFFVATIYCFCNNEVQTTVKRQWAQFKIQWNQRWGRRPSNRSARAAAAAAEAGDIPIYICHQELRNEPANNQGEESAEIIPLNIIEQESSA
Put shortly:
(§1)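 Homologous competition, intact cells, 4 °C overnight; tracer ^125I-sCT(8-32) 25–100 pM (two concs) vs cold sCT(8-32); NSB 1 μM cold peptide; γ counter; 3-param logistic IC50 → Cheng-Prusoff pKi; Bmax also estimated.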

The next assay has as its target T2, hCTR P360A (Homo sapiens, UniProt P30988, P360A).
T2 construct: expressed in transfected cells
T2 sequence (P30988 25-474 P360A): T1 sequence (P30988 25-474 G369A) with P336A, A345G
Put shortly:
as §1

Another assay concerns the target T3, hCTR V358A (Homo sapiens, UniProt P30988, V358A).
T3 construct: c-Myc (N); expressed in transfected cells
T3 sequence (P30988 25-474 V358A): T1 sequence (P30988 25-474 G369A) with V334A, A345G
Put shortly: as §1

A further assay addresses T4, hCTR V375A (Homo sapiens, UniProt P30988, V375A).
T4 construct: c-Myc (N); expressed in transfected cells
T4 sequence (P30988 25-474 V375A): T1 sequence (P30988 25-474 G369A) with A345G, V351A
Put shortly: as §1

Positions count from the first letter of the chain named. Where no end group is shown, it is not given here.

As for “VLGKLSQELHKLQTYPRTNTGSGTP-NH2 [sCT(8-32)]”, the Ki is 0.229 nM on hCTR G369A, 0.603 nM at hCTR P360A, 0.155 nM on hCTR V358A and 0.191 nM on hCTR V375A.
